Measurements reported in patent US20260376293A1, “METHODS FOR STUDYING GPR158 PHARMACOLOGY AND IDENTIFICATION OF ITS LIGANDS” (UNIVERSITY OF FLORIDA RESEARCH FOUNDATION, INCORPORATED, priority 2022, published 2026).

How the values were obtained:
GlyRs = conditions: cited from earlier work
GPR158 S266A mutant = target: T1, GPR158 S266A mutant (Homo sapiens, UniProt Q5T848, S266A); assay: GAP BRET assay on GPR158 mutant S266A; type: cell-based
T1 construct: RGS7/Gβ5 co-expressed in the GAP BRET row only
T1 sequence (Q5T848 24-1215 S266A): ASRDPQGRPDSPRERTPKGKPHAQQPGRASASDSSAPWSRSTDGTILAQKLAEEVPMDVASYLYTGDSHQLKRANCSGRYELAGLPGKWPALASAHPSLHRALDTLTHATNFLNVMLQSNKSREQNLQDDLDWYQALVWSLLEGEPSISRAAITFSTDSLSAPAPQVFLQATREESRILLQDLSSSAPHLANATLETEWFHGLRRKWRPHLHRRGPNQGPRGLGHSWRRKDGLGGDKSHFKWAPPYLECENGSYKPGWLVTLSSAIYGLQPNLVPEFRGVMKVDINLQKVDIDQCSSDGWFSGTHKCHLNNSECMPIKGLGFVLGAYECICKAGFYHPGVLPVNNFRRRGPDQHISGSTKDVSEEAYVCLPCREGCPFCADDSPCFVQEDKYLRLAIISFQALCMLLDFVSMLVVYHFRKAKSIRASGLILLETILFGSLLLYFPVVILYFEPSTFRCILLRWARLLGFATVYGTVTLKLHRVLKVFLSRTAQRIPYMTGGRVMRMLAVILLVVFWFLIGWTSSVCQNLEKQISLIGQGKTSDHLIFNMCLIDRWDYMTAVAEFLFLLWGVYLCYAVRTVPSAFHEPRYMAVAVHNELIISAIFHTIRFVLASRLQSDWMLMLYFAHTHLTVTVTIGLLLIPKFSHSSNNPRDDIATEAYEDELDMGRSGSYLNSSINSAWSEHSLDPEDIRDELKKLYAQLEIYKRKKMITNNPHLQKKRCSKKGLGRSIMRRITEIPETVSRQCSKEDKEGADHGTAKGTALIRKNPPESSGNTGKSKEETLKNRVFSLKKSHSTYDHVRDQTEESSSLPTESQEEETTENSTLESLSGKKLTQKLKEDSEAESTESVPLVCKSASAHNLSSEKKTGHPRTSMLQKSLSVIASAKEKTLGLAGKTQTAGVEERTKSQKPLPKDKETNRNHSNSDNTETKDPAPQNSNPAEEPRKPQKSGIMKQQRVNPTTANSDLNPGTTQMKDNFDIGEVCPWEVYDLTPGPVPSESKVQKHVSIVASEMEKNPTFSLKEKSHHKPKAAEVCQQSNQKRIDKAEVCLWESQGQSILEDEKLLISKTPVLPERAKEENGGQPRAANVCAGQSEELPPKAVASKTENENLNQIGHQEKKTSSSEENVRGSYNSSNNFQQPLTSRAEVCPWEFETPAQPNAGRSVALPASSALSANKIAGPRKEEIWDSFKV
From the text: FIGS. 11A-11G. Probing Cache domain of GPR158 as a ligand binding site A) Computational docking of glycine into putative ligand binding pocket on GPR158 Cache domain. Glycine and directly interacting residues are shown as sticks. Hydrogen bonds and van der Waals interactions are shown as dotted lines. B) Diagram showing interactions in the docked model of glycine against GPR158 Cache domain. Hydrogen bonds are shown as dashed lines, van der Waals interactions are shown as intersecting semicircles, and the secondary structural context of Ser266 and Tyr269 is shown as an arc. Dagger indicates a residue implicated in glycine binding in 11A. […] Error bars are mean±s.e.m. of 3 independent experiments in triplicate. *p<0.05, **p<0.01, ***p<0.001, ****p<0.0001, ns=p>0.05, two-way ANOVA Columns with no fill (Ctrl), columns with angled-line fill (Glycine) E) Quantification of glycine inhibitory effect on kGAP normalized to the effect seen with WT receptor. […]
Cellular measurements of BRET between Venus-Gβ1γ2 and masGRK3ct-Nluc were performed to examine GAP activity of RGS protein in living cells (described in detail in Masuho et al., 2015 (40)). […] The BRET signal was determined by calculating the ratio of the light emitted by the Venus-Gβ1γ2 (535 nm with a 30 nm band path width) over the light emitted by the masGRK3ct-Nluc (475 nm with a 30 nm band path width). […]

In the case of NCC(=O)O [glycine], the “affinity of GlyRs for glycine relative to mGlyR” value (GlyRs) is given as “an order of magnitude lower affinity” and the “regulation of mutant activity by glycine” value (GPR158 S266A mutant) is given as “unable to be regulated”.
